This note sets out measurements from patent US8906928B2, “Substituted pyrazolo-pyrrolo-pyridine-dione compounds” (ArQule, Inc., priority 2009, dated 2014).

The test system of one test is DLD-1. The test is described as follows: MTS assay (cell growth inhibition), DLD-1. It is filed as cell-based. The note with it: DLD-1 cells, 72 hours incubation with test compound; concentration not given. On the procedure: (§1) Cells were maintained at 37° C., 5% CO2 in DMEM media supplemented with 1% fetal bovine serum, penicillin/streptomycin and fungizone (Invitrogen). Cells were seeded into 96-well tissue culture plates at 3000 per well and cultured at 37° C. for 18 hours. Test compounds were dissolved and diluted to 300× in DMSO then diluted 1:40 in DMEM. Cells were incubated with test compounds for 72 hours followed by incubation with tetrazolium compound (3-(4,5-dimethylthiazol-2-yl)-5-(3-carboxymethoxyphenyl)-2-(4-sulfophenyl)-2H-tetrazolium, inner salt; MTS) and the electron coupling reagent, phenazine methosulfate (PMS) for 4 hours. […] The ability of compounds to inhibit cell growth in this assay is correlated with the reduction of dehydrogenase enzyme activity found in metabolically active cells. The measurement of the absorbance of the formazan was assessed using an ENVISION™ (Perkin Elmer) microplate reader at 492 nm. The calculated IC50 value is the concentration of the test compound that causes a 50% decrease in the absorbance.
In general terms: Tetrazolium dyes change colour on reduction, which living cells bring about.
Take `CC(C)OCCN1C(=O)c2cnc3[nH]ncc3c2C1=O` [Example 16, 7-(2-isopropoxyethyl)pyrazolo[3,4-b]pyrrolo[3,4-d]pyridine-6,8(3H,7H)-dione]: the “MTS CELL KILL DATA (% INHIBITION) DLD-1” value is “C (C = <50% INHIBITION)”.

Consider `CCCCN(CCCC)CCN1C(=O)c2cnc3[nH]ncc3c2C1=O` [Example 18, 7-[2-(dibutylamino)ethyl]pyrazolo[3,4-b]pyrrolo[3,4-d]pyridine-6,8(3H,7H)-dione], for which the “MTS CELL KILL DATA (% INHIBITION) DLD-1” value is “C (C = <50% INHIBITION)”.

For `Cc1ccc(Cl)c(CN2C(=O)c3cnc4[nH]ncc4c3C2=O)c1F` [Example 19, 7-(6-chloro-2-fluoro-3-methylbenzyl)pyrazolo[3,4-b]pyrrolo[3,4-d]pyridine-6,8(3H,7H)-dione], the “MTS CELL KILL DATA (% INHIBITION) DLD-1” value is “C (C = <50% INHIBITION)”.

For `O=C1c2cnc3[nH]ncc3c2C(=O)N1Cc1ccc(F)c(F)c1F` [Example 20, 7-(2,3,4-trifluorobenzyl)pyrazolo[3,4-b]pyrrolo[3,4-d]pyrindine-6,8(3H,7H)-dione], the “MTS CELL KILL DATA (% INHIBITION) DLD-1” value is “C (C = <50% INHIBITION)”.

`CN(C)c1cccc(CN2C(=O)c3cnc4[nH]ncc4c3C2=O)c1` [Example 23]: the “MTS CELL KILL DATA (% INHIBITION) DLD-1” value was “C (C = <50% INHIBITION)”.

As for `O=C1c2cnc3[nH]ncc3c2C(=O)N1CCOc1ccccc1Cl` [Example 25, 7-[2-(2-chlorophenoxy)ethyl]pyrazolo[3,4-b]pyrrolo[3,4-d]pyridine-6,8(3H,7H)-dione], the “MTS CELL KILL DATA (% INHIBITION) DLD-1” value is on record as “C (C = <50% INHIBITION)”.

Another test has as its system PC-3. The test is described as follows: MTS assay (cell growth inhibition), PC-3. The conditions noted are these: PC-3 cells, 72 hours incubation with test compound; concentration not given. It counts as cell-based. On the procedure:
as §1
As to `CC(C)OCCN1C(=O)c2cnc3[nH]ncc3c2C1=O` [Example 16, 7-(2-isopropoxyethyl)pyrazolo[3,4-b]pyrrolo[3,4-d]pyridine-6,8(3H,7H)-dione], the “MTS CELL KILL DATA (% INHIBITION) PC-3” value was “C (C = <50% INHIBITION)”.

Turning to `CCCCN(CCCC)CCN1C(=O)c2cnc3[nH]ncc3c2C1=O` [Example 18, 7-[2-(dibutylamino)ethyl]pyrazolo[3,4-b]pyrrolo[3,4-d]pyridine-6,8(3H,7H)-dione], the “MTS CELL KILL DATA (% INHIBITION) PC-3” value is on record as “A (A = 80-100% INHIBITION)”.

Regarding `Cc1ccc(Cl)c(CN2C(=O)c3cnc4[nH]ncc4c3C2=O)c1F` [Example 19, 7-(6-chloro-2-fluoro-3-methylbenzyl)pyrazolo[3,4-b]pyrrolo[3,4-d]pyridine-6,8(3H,7H)-dione], the “MTS CELL KILL DATA (% INHIBITION) PC-3” value was “A (A = 80-100% INHIBITION)”.

Consider `O=C1c2cnc3[nH]ncc3c2C(=O)N1Cc1ccc(F)c(F)c1F` [Example 20, 7-(2,3,4-trifluorobenzyl)pyrazolo[3,4-b]pyrrolo[3,4-d]pyrindine-6,8(3H,7H)-dione], for which the “MTS CELL KILL DATA (% INHIBITION) PC-3” value is “A (A = 80-100% INHIBITION)”.

Take `CN(C)c1cccc(CN2C(=O)c3cnc4[nH]ncc4c3C2=O)c1` [Example 23]: the “MTS CELL KILL DATA (% INHIBITION) PC-3” value is reported as “C (C = <50% INHIBITION)”.

Turning to `O=C1c2cnc3[nH]ncc3c2C(=O)N1CCOc1ccccc1Cl` [Example 25, 7-[2-(2-chlorophenoxy)ethyl]pyrazolo[3,4-b]pyrrolo[3,4-d]pyridine-6,8(3H,7H)-dione], the “MTS CELL KILL DATA (% INHIBITION) PC-3” value is recorded as “A (A = 80-100% INHIBITION)”.

A further test deals with PACA-2. The test is described as follows: MTS assay (cell growth inhibition), PACA-2. It is filed as cell-based. The conditions noted are these: PACA-2 cells, 72 hours incubation with test compound; concentration not given. As to the method: as §1
As for `CC(C)OCCN1C(=O)c2cnc3[nH]ncc3c2C1=O` [Example 16, 7-(2-isopropoxyethyl)pyrazolo[3,4-b]pyrrolo[3,4-d]pyridine-6,8(3H,7H)-dione], the “MTS CELL KILL DATA (% INHIBITION) PACA-2” value was “B (B = 50-79% INHIBITION)”.

With `CCCCN(CCCC)CCN1C(=O)c2cnc3[nH]ncc3c2C1=O` [Example 18, 7-[2-(dibutylamino)ethyl]pyrazolo[3,4-b]pyrrolo[3,4-d]pyridine-6,8(3H,7H)-dione], the “MTS CELL KILL DATA (% INHIBITION) PACA-2” value was “C (C = <50% INHIBITION)”.

With `Cc1ccc(Cl)c(CN2C(=O)c3cnc4[nH]ncc4c3C2=O)c1F` [Example 19, 7-(6-chloro-2-fluoro-3-methylbenzyl)pyrazolo[3,4-b]pyrrolo[3,4-d]pyridine-6,8(3H,7H)-dione], the “MTS CELL KILL DATA (% INHIBITION) PACA-2” value is listed as “C (C = <50% INHIBITION)”.

As for `O=C1c2cnc3[nH]ncc3c2C(=O)N1Cc1ccc(F)c(F)c1F` [Example 20, 7-(2,3,4-trifluorobenzyl)pyrazolo[3,4-b]pyrrolo[3,4-d]pyrindine-6,8(3H,7H)-dione], the “MTS CELL KILL DATA (% INHIBITION) PACA-2” value was “C (C = <50% INHIBITION)”.

In the case of `CN(C)c1cccc(CN2C(=O)c3cnc4[nH]ncc4c3C2=O)c1` [Example 23], the “MTS CELL KILL DATA (% INHIBITION) PACA-2” value is given as “C (C = <50% INHIBITION)”.

On to `O=C1c2cnc3[nH]ncc3c2C(=O)N1CCOc1ccccc1Cl` [Example 25, 7-[2-(2-chlorophenoxy)ethyl]pyrazolo[3,4-b]pyrrolo[3,4-d]pyridine-6,8(3H,7H)-dione], for which the “MTS CELL KILL DATA (% INHIBITION) PACA-2” value is “C (C = <50% INHIBITION)”.

The next test relates to NCI-H1299. The test is described as follows: MTS assay (cell growth inhibition), NCI-H1299. It counts as cell-based. The note with it: NCI-H1299 cells, 72 hours incubation with test compound; concentration not given. As to the method:
as §1
Regarding `CC(C)OCCN1C(=O)c2cnc3[nH]ncc3c2C1=O` [Example 16, 7-(2-isopropoxyethyl)pyrazolo[3,4-b]pyrrolo[3,4-d]pyridine-6,8(3H,7H)-dione], the “MTS CELL KILL DATA (% INHIBITION) NCI-H1299” value is listed as “C (C = <50% INHIBITION)”.

Take `CCCCN(CCCC)CCN1C(=O)c2cnc3[nH]ncc3c2C1=O` [Example 18, 7-[2-(dibutylamino)ethyl]pyrazolo[3,4-b]pyrrolo[3,4-d]pyridine-6,8(3H,7H)-dione]: the “MTS CELL KILL DATA (% INHIBITION) NCI-H1299” value is “C (C = <50% INHIBITION)”.

Regarding `Cc1ccc(Cl)c(CN2C(=O)c3cnc4[nH]ncc4c3C2=O)c1F` [Example 19, 7-(6-chloro-2-fluoro-3-methylbenzyl)pyrazolo[3,4-b]pyrrolo[3,4-d]pyridine-6,8(3H,7H)-dione], the “MTS CELL KILL DATA (% INHIBITION) NCI-H1299” value is on record as “C (C = <50% INHIBITION)”.

As for `O=C1c2cnc3[nH]ncc3c2C(=O)N1Cc1ccc(F)c(F)c1F` [Example 20, 7-(2,3,4-trifluorobenzyl)pyrazolo[3,4-b]pyrrolo[3,4-d]pyrindine-6,8(3H,7H)-dione], the “MTS CELL KILL DATA (% INHIBITION) NCI-H1299” value was “C (C = <50% INHIBITION)”.

For the compound `CN(C)c1cccc(CN2C(=O)c3cnc4[nH]ncc4c3C2=O)c1` [Example 23], the “MTS CELL KILL DATA (% INHIBITION) NCI-H1299” value is reported as “C (C = <50% INHIBITION)”.

Regarding `O=C1c2cnc3[nH]ncc3c2C(=O)N1CCOc1ccccc1Cl` [Example 25, 7-[2-(2-chlorophenoxy)ethyl]pyrazolo[3,4-b]pyrrolo[3,4-d]pyridine-6,8(3H,7H)-dione], the “MTS CELL KILL DATA (% INHIBITION) NCI-H1299” value is given as “C (C = <50% INHIBITION)”.

In a further test the test system is MDA-MB. The test is described as follows: MTS assay (cell growth inhibition), MDA-MB. It counts as cell-based. The conditions noted are these: MDA-MB cells, 72 hours incubation with test compound; concentration not given. On the procedure:
as §1
As for `CC(C)OCCN1C(=O)c2cnc3[nH]ncc3c2C1=O` [Example 16, 7-(2-isopropoxyethyl)pyrazolo[3,4-b]pyrrolo[3,4-d]pyridine-6,8(3H,7H)-dione], the “MTS CELL KILL DATA (% INHIBITION) MDA-MB” value is reported as “B (B = 50-79% INHIBITION)”.

`CCCCN(CCCC)CCN1C(=O)c2cnc3[nH]ncc3c2C1=O` [Example 18, 7-[2-(dibutylamino)ethyl]pyrazolo[3,4-b]pyrrolo[3,4-d]pyridine-6,8(3H,7H)-dione]: the “MTS CELL KILL DATA (% INHIBITION) MDA-MB” value is recorded as “A (A = 80-100% INHIBITION)”.

`Cc1ccc(Cl)c(CN2C(=O)c3cnc4[nH]ncc4c3C2=O)c1F` [Example 19, 7-(6-chloro-2-fluoro-3-methylbenzyl)pyrazolo[3,4-b]pyrrolo[3,4-d]pyridine-6,8(3H,7H)-dione]: the “MTS CELL KILL DATA (% INHIBITION) MDA-MB” value is recorded as “B (B = 50-79% INHIBITION)”.

As for `O=C1c2cnc3[nH]ncc3c2C(=O)N1Cc1ccc(F)c(F)c1F` [Example 20, 7-(2,3,4-trifluorobenzyl)pyrazolo[3,4-b]pyrrolo[3,4-d]pyrindine-6,8(3H,7H)-dione], the “MTS CELL KILL DATA (% INHIBITION) MDA-MB” value is listed as “A (A = 80-100% INHIBITION)”.

Consider `CN(C)c1cccc(CN2C(=O)c3cnc4[nH]ncc4c3C2=O)c1` [Example 23], for which the “MTS CELL KILL DATA (% INHIBITION) MDA-MB” value is on record as “C (C = <50% INHIBITION)”.

In the case of `O=C1c2cnc3[nH]ncc3c2C(=O)N1CCOc1ccccc1Cl` [Example 25, 7-[2-(2-chlorophenoxy)ethyl]pyrazolo[3,4-b]pyrrolo[3,4-d]pyridine-6,8(3H,7H)-dione], the “MTS CELL KILL DATA (% INHIBITION) MDA-MB” value is “A (A = 80-100% INHIBITION)”.

A further test deals with Kato III. The test is described as follows: MTS assay (cell growth inhibition), Kato III. It is filed as cell-based. The conditions noted are these: Kato III cells, 72 hours incubation with test compound; concentration not given. As to the method: as §1
Take `CC(C)OCCN1C(=O)c2cnc3[nH]ncc3c2C1=O` [Example 16, 7-(2-isopropoxyethyl)pyrazolo[3,4-b]pyrrolo[3,4-d]pyridine-6,8(3H,7H)-dione]: the “MTS CELL KILL DATA (% INHIBITION) Kato III” value is given as “C (C = <50% INHIBITION)”.

For the compound `CCCCN(CCCC)CCN1C(=O)c2cnc3[nH]ncc3c2C1=O` [Example 18, 7-[2-(dibutylamino)ethyl]pyrazolo[3,4-b]pyrrolo[3,4-d]pyridine-6,8(3H,7H)-dione], the “MTS CELL KILL DATA (% INHIBITION) Kato III” value is reported as “C (C = <50% INHIBITION)”.

Turning to `Cc1ccc(Cl)c(CN2C(=O)c3cnc4[nH]ncc4c3C2=O)c1F` [Example 19, 7-(6-chloro-2-fluoro-3-methylbenzyl)pyrazolo[3,4-b]pyrrolo[3,4-d]pyridine-6,8(3H,7H)-dione], the “MTS CELL KILL DATA (% INHIBITION) Kato III” value is “A (A = 80-100% INHIBITION)”.

Regarding `O=C1c2cnc3[nH]ncc3c2C(=O)N1Cc1ccc(F)c(F)c1F` [Example 20, 7-(2,3,4-trifluorobenzyl)pyrazolo[3,4-b]pyrrolo[3,4-d]pyrindine-6,8(3H,7H)-dione], the “MTS CELL KILL DATA (% INHIBITION) Kato III” value is “C (C = <50% INHIBITION)”.

As to `CN(C)c1cccc(CN2C(=O)c3cnc4[nH]ncc4c3C2=O)c1` [Example 23], the “MTS CELL KILL DATA (% INHIBITION) Kato III” value is recorded as “C (C = <50% INHIBITION)”.

Regarding `O=C1c2cnc3[nH]ncc3c2C(=O)N1CCOc1ccccc1Cl` [Example 25, 7-[2-(2-chlorophenoxy)ethyl]pyrazolo[3,4-b]pyrrolo[3,4-d]pyridine-6,8(3H,7H)-dione], the “MTS CELL KILL DATA (% INHIBITION) Kato III” value was “C (C = <50% INHIBITION)”.
